From US10473647B1, “Peptides for use in treatment and diagnosis of type 1 diabetes” (ImmusanT, Inc., priority 2014, dated 2019)

Columns and labels:
Assay type in all cases: cell-based, human
[1] = tested on: whole blood from subjects with Type 1 Diabetes; experiment: Whole blood IP-10 release assay, fine mapping of preproinsulin epitope (Example 3); conditions: peptide 10 μM; average of 4 subjects with T1D; FIG. 1A-1C
Excerpt: The leader sequence of the preproinsulin epitope was fine mapped with lys-substituted peptides and C- and N-terminal truncations. […] Without wishing to be bound by any theory, a therapeutic and/or diagnostic peptide in accordance with the present disclosure may be selected to avoid CD8 activity but ensure that CD4 T cells were targeted. The data are the averages of 4 subjects whole blood IP-10 release measured as fold change over medium alone without peptide.
Whole blood was collected from 4 subjects with Type 1 Diabetes aged between 29 and 45-years old. […] In whole blood assays using fresh heparinized blood incubated with peptide (final concentration 10 μM) in phosphate buffered saline (PBS) and DMSO in 96-well round-bottom plates. Peptides (purity by LC-MS >80%) were truncations or lysine-substituted variants of a sequence in preproinsulin shown to be immunogenic in previous studies comparing peptides spanning this polypeptide. […] Assay plates were run on the Luminex MAGPIX magnetic plate reader. The upper limit of quantitation is 10,000 pg/mL and the lower limit of detection is 3.2 pg/mL. The Fold Change of cytokine concentrations from incubations with individual peptides was calculated by dividing the cytokine concentration from the individual peptide incubations by the cytokine concentration of incubations with PBS and DMSO (NIL) on the same assay plates. […]

[2] = tested on: CD8+ T cell depleted blood; experiment: Whole blood cytokine assay, IFNg, CD8+ T cell depleted blood (Example 2); conditions: T1D Subjects (n of 6), 24 h, peptides 20 ug/mL, pools 4 ug/mL, NEX-01/Nexgen POOL 25 uM, CEFT 1 ug/mL
Protocol: (§1) Depletion of human CD4+ and CD8+ T cells directly from whole blood, using CD4 and CD8 Dynabeads respectively (Dynabeads Human CD4, Life Technologies, #11145D; Dynabeads Human CD8, Life Technologies, #11145D), was done according to the manufacturer's protocol. Briefly, the Dynabeads were resuspended and the desired volume was transferred to a 15 Ml tube. The calculation of the volume of beads added to whole blood was 2×10^6 CD4 beads (25 μL) and 4×10^6 CD8 beads (50 μL) per Ml of whole blood. The beads were first washed with 3 Ml PBS, vortexed and placed on the magnet for 1 minute. Supernatant was discarded and beads were removed from the magnet. Whole blood was then added to the beads at the volume calculated for the concentration of beads in the tubes. The tubes containing whole blood and Dynabeads were then incubated 45 minutes at 4° C. on a continuous rocker.
(§2) Tubes were then placed into the magnet for 2 minutes. The whole blood supernatant was then transferred to a new tube for use in 24-hour Whole Blood Assay or for Flow Cytometric Analysis. Magnetic beads were discarded.
(§3) The depleted blood as well as the remaining undepleted whole blood was then utilized in whole blood cytokine release assays. T-cell cytokine responses were assessed for reactivity to pools of 17mer peptides encompassing all unique 12mer amino-acid sequences derived from pancreatic islet antigens commonly recognized by autoantibodies in T1D: insulin, glutamic decarboxylase-65 (GAD65), and insulinoma-associated antigen (IA)-2 as provided in Table 13A and Table 13B.
(§4) Fresh heparinized blood was incubated with peptide. Concentrations of individual islet-autoantigen peptides were 20 μg/mL and constituent peptides in islet-autoantigen pools were 4 ug/mL. Control MHC class II peptide mix CEFT was used at 1 μg/mL. Gliadin peptide pools were added to whole blood assays at 25 μM. Whole blood assays were incubated for 24 h at 37° C. in 5% CO2. Plasma was separated from blood after centrifugation at 500×g for 10 minutes at room temperature and then transferred to a corresponding well in a “mirror image” sterile 96-well plate. and frozen at −80° C. until use. Multiplex bead-based cytokine assays (MAGPix) were performed according to manufacturer's instructions on thawed plasma. Concentrations of interferon (IFN)-γ-induced protein-10 (IP-10), interleukin (IL)-2 and IFN-γ. Table 14 is a summary of the results for the whole blood cytokine assays which expresses the data in the number of subjects that are positive for ≥1.25 fold production of cytokine over cells incubated with medium only (background).

[3] = tested on: CD8+ T cell depleted blood; experiment: Whole blood cytokine assay, IP-10, CD8+ T cell depleted blood (Example 2); conditions: T1D Subjects (n of 6), 24 h, peptides 20 ug/mL, pools 4 ug/mL, NEX-01/Nexgen POOL 25 uM, CEFT 1 ug/mL
Protocol: as §1, §2, §3, §4

undepleted whole blood [4] = experiment: Whole blood cytokine assay, IP-10, undepleted blood, number of subjects with >=1.25 fold over medium (Example 2); conditions: 24 h, peptides 20 ug/mL, pools 4 ug/mL, NEX-01/Nexgen POOL 25 uM, CEFT 1 ug/mL
Protocol: as §3, §4

undepleted whole blood [5] = experiment: Whole blood cytokine assay, IFNg, undepleted blood, number of subjects with >=1.25 fold over medium (Example 2); conditions: 24 h, peptides 20 ug/mL, pools 4 ug/mL, NEX-01/Nexgen POOL 25 uM, CEFT 1 ug/mL
Protocol: as §3, §4

undepleted whole blood [6] = experiment: Whole blood cytokine assay, IL-2, undepleted blood, number of subjects with >=1.25 fold over medium (Example 2); conditions: 24 h, peptides 20 ug/mL, pools 4 ug/mL, NEX-01/Nexgen POOL 25 uM, CEFT 1 ug/mL
Protocol: as §3, §4

[7] = tested on: CD4+ T cell depleted blood; experiment: Whole blood cytokine assay, IFNg, CD4+ T cell depleted blood (Example 2); conditions: T1D Subjects (n of 6), 24 h, peptides 20 ug/mL, pools 4 ug/mL, NEX-01/Nexgen POOL 25 uM, CEFT 1 ug/mL
Protocol: as §1, §2, §3, §4

[8] = tested on: CD8+ T cell depleted blood; experiment: Whole blood cytokine assay, IL-2, CD8+ T cell depleted blood (Example 2); conditions: T1D Subjects (n of 6), 24 h, peptides 20 ug/mL, pools 4 ug/mL, NEX-01/Nexgen POOL 25 uM, CEFT 1 ug/mL
Protocol: as §1, §2, §3, §4

[9] = tested on: CD4+ T cell depleted blood; experiment: Whole blood cytokine assay, IP-10, CD4+ T cell depleted blood (Example 2); conditions: T1D Subjects (n of 6), 24 h, peptides 20 ug/mL, pools 4 ug/mL, NEX-01/Nexgen POOL 25 uM, CEFT 1 ug/mL
Protocol: as §1, §2, §3, §4

[10] = Healthy Subjects (n of 4), whole blood
[11] = T1D Subjects (n of 6), Undepleted WB

Substance | bioactivity in whole blood IP-10 release assay (fold change over medium alone), in words [1] | Fold Change IFNg, number of subjects positive for ≥1.25 fold production of cytokine over medium only [2] | Fold Change IP-10, number of subjects positive for ≥1.25 fold production of cytokine over medium only [3] | Fold Change IP-10, number of subjects positive for ≥1.25 fold production of cytokine over medium only (undepleted whole blood [4]; [10]) | Fold Change IP-10, number of subjects positive for ≥1.25 fold production of cytokine over medium only (undepleted whole blood [4]; [11]) | Fold Change IFNg, number of subjects positive for ≥1.25 fold production of cytokine over medium only (undepleted whole blood [5]; [10]) | Fold Change IFNg, number of subjects positive for ≥1.25 fold production of cytokine over medium only (undepleted whole blood [5]; [11]) | Fold Change IL-2, number of subjects positive for ≥1.25 fold production of cytokine over medium only (undepleted whole blood [6]; [10]) | Fold Change IL-2, number of subjects positive for ≥1.25 fold production of cytokine over medium only (undepleted whole blood [6]; [11]) | Fold Change IFNg, number of subjects positive for ≥1.25 fold production of cytokine over medium only [7] | Fold Change IL-2, number of subjects positive for ≥1.25 fold production of cytokine over medium only [8] | Fold Change IP-10, number of subjects positive for ≥1.25 fold production of cytokine over medium only [9]
LLALLALWGPD [SEQ ID NO: 14] | compatible with an epitope for CD4 T cells |  |  |  |  |  |  |  |  |  |  | 
LPLLALLAL [SEQ ID NO: 76] | suggests this is an epitope for CD8 T cells |  |  |  |  |  |  |  |  |  |  | 
20150-24: peptide tested in Example 2 whole blood cytokine assays (Tables 13A/13B, 14) (PLLALLALWGPDPAAAF) |  | 5/6 | 5/6 | 4/4 | 6/6 | 1/4 | 4/6 | 1/4 | 4/6 | 1/6 | 6/6 | 3/6
